In patent publication US20260234165A1, “MACROCYCLIC COMPOUNDS, PREPARATION METHOD THEREFOR, AND USE THEREOF” (GENFLEET THERAPEUTICS (SHANGHAI) INC., priority 2004, published 2026):
Where two headings read alike, the source gives them in different places.

How the values were obtained:
Assay type in all cases: cell-based, human
[1] = tested on: p-ERK in NCI-H441 cells (KRAS G12V mutation); assay: Cell p-ERK assay (HTRF) in NCI-H441 cells; conditions: NCI-H441 cells, 3 h compound incubation, HTRF p-ERK T202/Y204, read-out: H441 p-ERK IC50
In short: (§1)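 In this cellular format, endogenous KRAS-mutant lines grown in RPMI-1640 plus 10% FBS received graded compound concentrations for 3 h at 37 °C. Lysates were incubated 4 h with the phospho-T202/Y204 ERK HTRF antibody pair, and percent inhibition relative to DMSO and blank wells was curve-fitted to give IC50.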

[2] = tested on: p-ERK in AsPC-1 cells (KRAS G12D mutation); assay: Cell p-ERK assay (HTRF) in AsPC-1 cells; conditions: AsPC-1 cells, 3 h compound incubation, HTRF p-ERK T202/Y204, read-out: AsPC-1 p-ERK IC50
In short: as §1

[3] = tested on: NCI-H441 cells; assay: 3D cell proliferation assay (CellTiter Glo-3D), NCI-H441; conditions: medium with 2% FBS, read-out: H441 AP IC50
In short: (§2)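 NCI-H441 ([…] lung) and AsPC-1 (KRAS G12D pancreatic) cells, 800 per well, were seeded in RPMI-1640 with 2% FBS and dosed next day with 3.16-fold compound dilutions (0.1% DMSO). After 5 days at 37 °C, CellTiter-Glo 3D luminescence gave inhibition versus DMSO and blank; IC50 from four-parameter fit.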

[4] = tested on: AsPC-1 cells (KRAS G12D mutation); assay: 3D cell proliferation assay (CellTiter Glo-3D), AsPC-1; conditions: medium with 2% FBS, read-out: AsPC-1 AP IC50
In short: as §2

[5] = 3D cell proliferation (CellTiter Glo-3D)
[6] = Homo sapiens, NCI-H441, 3D cell proliferation (CellTiter Glo-3D)
[7] = Homo sapiens, ASPC1, 3D cell proliferation (CellTiter Glo-3D)

SMILES	IC50 [1]	IC50 [2]	IC50 [3, 5]	IC50 [4, 5]	IC50 ([1]; Homo sapiens, NCI-H441, 3 h)	IC50 ([2]; Homo sapiens, ASPC1, 3 h)	IC50 [3, 6]	IC50 [4, 7]
CCn1c(-c2cc(OCCN3CCS(=O)(=O)CC3)cnc2[C@H](C)OC)c2c3cc(ccc31)-c1csc(n1)C[C@H](NC(=O)[C@H]1C[C@@H]1C)C(=O)N1CCC[C@H](N1)C(=O)OCC(C)(C)C2 (atropisomer, axis not shown; (Ra)) [Compound Z605]	0.3 nM	0.6 nM	0.26 nM	0.5 nM	–	–	–	–
CC[C@H](C)C(=O)N[C@H]1Cc2nc(cs2)-c2ccc3c(c2)c(c(-c2cc(OCCN4CCS(=O)(=O)CC4)cnc2[C@H](C)OC)n3CC)CC(C)(C)COC(=O)[C@@H]2CCCN(N2)C1=O (atropisomer, axis not shown; (Ra)) [Compound Z609, (2S)—N-((6^3S,4S,Z)—(Ra)-1^2-(5-(2-(1,1-dioxidothiomorpholino)ethoxy)-2-((S)-1-methoxyethyl)pyridin-3-yl)-1^1-ethyl-10,10-dimethyl-5,7-dioxo-6^1,6^2,6^3,6^4,6^5,6^6-hexahydro-1^1H-8-oxa-2(4,2)-thiazola-1(5,3)-indola-6(1,3)-pyridazinacycloundecaphane-4-yl)-2-methylbutanamide]	–	–	–	–	0.76 nM	0.76 nM	0.22 nM	0.79 nM
CC[C@@H](C)C(=O)N[C@H]1Cc2nc(cs2)-c2ccc3c(c2)c(c(-c2cc(OCCN4CCS(=O)(=O)CC4)cnc2[C@H](C)OC)n3CC)CC(C)(C)COC(=O)[C@@H]2CCCN(N2)C1=O (atropisomer, axis not shown; (Ra)) [Compound Z610, (2R)—N-((6^3S,4S,Z)—(Ra)-1^2-(5-(2-(1,1-dioxidothiomorpholino)ethoxy)-2-((S)-1-methoxyethyl)pyridin-3-yl)-1^1-ethyl-10,10-dimethyl-5,7-dioxo-6^1,6^2,6^3,6^4,6^5,6^6-hexahydro-1^1H-8-oxa-2(4,2)-thiazola-1(5,3)-indola-6(1,3)-pyridazinacycloundecaphane-4-yl)-2-methylbutanamide]	–	–	–	–	0.57 nM	0.71 nM	0.32 nM	1.37 nM
CCn1c(-c2cc(OCC3(N4CCS(=O)(=O)CC4)CC3)cnc2[C@H](C)OC)c2c3cc(ccc31)-c1csc(n1)C[C@H](NC(=O)[C@H]1[C@H](C)[C@@H]1C)C(=O)N1CCC[C@H](N1)C(=O)OCC(C)(C)C2 (atropisomer, axis not shown; (Ra)) [Compound Z614, (1r,2R,3S)—N-((6^3S,4S,Z)-1^2-(5-((1-(1,1-dioxidothiomorpholino)cyclopropyl)methoxy)-2-((S)-1-methoxyethyl)pyridin-3-yl)-1^1-ethyl-(Ra)-10,10-dimethyl-5,7-dioxo-6^1,6^2,6^3,6^4,6^5,6^6-hexahydro-1^1hydrogen-8-oxa-2(4,2)-thiazola-1(5,3)-indola-6(1,3)-pyridazinacycloundecaphane-4-yl)-2,3-dimethylcyclopropane-1-carboxamide]	–	–	–	–	0.23 nM	0.09 nM	0.15 nM	0.11 nM
CCn1c(-c2cc(C#CC(C)(C)N3CCCOCC3)cnc2[C@H](C)OC)c2c3cc(ccc31)-c1csc(n1)C[C@H](NC(=O)[C@H]1[C@H](C)[C@@H]1C)C(=O)N1CCC[C@H](N1)C(=O)OCC(C)(C)C2 (atropisomer, axis not shown; (Ra)) [Compound Z625, (1r,2R,3S)—N-((6S,4S,Z)-1^1-ethyl-(Ra)-1^2-(2-((S)-1-methoxyethyl)-5-(3-(1,4-oxazepan-4-yl)-3-methylbut-1-yn-1-yl)pyridin-3-yl)-10,10-dimethyl-5,7-dioxo-6^1,6^2,6^3,6^4,6^5,6^6hexahydro-1^1H-8-oxa-2(4,2)-thiazola-1(5,3)-indola-6(1,3)-pyridazinacycloundecaphane-4-yl)-2,3-dimethylcyclopropane-1-carboxamide]	–	–	–	–	0.2 nM	0.33 nM	0.24 nM	0.36 nM
CCn1c(-c2cc(C#CC(C)(C)N3CCC(OC)CC3)cnc2[C@H](C)OC)c2c3cc(ccc31)-c1csc(n1)C[C@H](NC(=O)[C@H]1[C@H](C)[C@@H]1C)C(=O)N1CCC[C@H](N1)C(=O)OCC(C)(C)C2 (atropisomer, axis not shown; (Ra)) [Compound Z628-1, (1r,2R,3S)—N-((6^3S,4S,Z)-1^1-ethyl-(Ra)-1^2-(2-((S)-1-methoxyethyl)-5-(3-(4-methoxypiperidin-1-yl)-3-methylbut-1-yn-1-yl)pyridin-3-yl)-10,10-dimethyl-5,7-dioxo-6^1,6^2,6^3,6^4,6^5,6^6hexahydro-1^1H-8-oxa-2(4,2)-thiazola-1(5,3)-indola-6(1,3)-pyridazinacycloundecaphane-4-yl)-2,3-dimethylcyclopropane-1-carboxamide]	0.35 nM	0.31 nM	0.34 nM	0.62 nM	–	–	–	–
CCn1c(-c2cc(C#C[C@]3(C)CCCN3C)cnc2[C@H](C)OC)c2c3cc(ccc31)-c1csc(n1)C[C@H](NC(=O)[C@H]1[C@H](C)[C@@H]1C)C(=O)N1CCC[C@H](N1)C(=O)OCC(C)(C)C2 (atropisomer, axis not shown; (Ra)) [Compound Z642]	–	–	–	–	0.29 nM	0.4 nM	0.36 nM	0.65 nM
CCn1c(-c2cc(C#C[C@@]3(C)CCCN3C)cnc2[C@H](C)OC)c2c3cc(ccc31)-c1csc(n1)C[C@H](NC(=O)[C@H]1[C@H](C)[C@@H]1C)C(=O)N1CCC[C@H](N1)C(=O)OCC(C)(C)C2 (atropisomer, axis not shown; (Ra)) [Compound Z643, (1r,2R,3S)—N-((6^3S,4S,Z)—(Ra)-1-(5-(((R)-1,2-dimethylpyrrolidin-2-yl)ethynyl)-2-((S)-1-methoxyethyl)pyridin-3-yl)-1^1-ethyl-10,10-dimethyl-5,7-dioxo-6^1,6^2,6^3,6^4,6^5,6^6-hexahydro-1^1H-8-oxa-2(4,2)-thiazola-1(5,3)-indola-6(1,3)-pyridazinacycloundecaphane-4-yl)-2,3-dimethylcyclopropane-1-carboxamide]	–	–	–	–	0.22 nM	0.51 nM	0.3 nM	0.64 nM
CCn1c(-c2cc(C#CC3(N4CCCOCC4)CC3)cnc2[C@H](C)OC)c2c3cc(ccc31)-c1csc(n1)C[C@H](NC(=O)[C@H]1[C@H](C)[C@@H]1C)C(=O)N1CCC[C@H](N1)C(=O)OCC(C)(C)C2 (atropisomer, axis not shown; (Ra)) [Compound Z645, (1r,2R,3S)—N-((4S,Z)—(Ra)-1-(5-((1-(1,4-oxazepan-4-yl)cyclopropyl)ethynyl)-2-((S)-1-methoxyethyl)pyridin-3-yl)-1^1-ethyl-10,10-dimethyl-5,7-dioxo-6^1,6^2,6^3,6^4,6^5,6^6-hexahydro-1^1H-8-oxa-2(4,2)-thiazola-1(5,3)-indola-6(1,3)-pyridazinacycloundecaphane-4-yl)-2,3-dimethylcyclopropane-1-carboxamide]	0.48 nM	0.15 nM	0.5 nM	0.81 nM	–	–	–	–
CCn1c(-c2cc(N3CCN(C)CC3)cnc2[C@H](C)OC)c2c3cc(ccc31)-c1csc(n1)C[C@H](Nc1nnc3cc(C)ccn13)C(=O)N1CCC[C@H](N1)C(=O)OCC(C)(C)C2 (atropisomer, axis not shown; (Ra)) [Compound Z653, (6^3S,4S,Z)-1^1-ethyl-(Ra)-1^2-(2-((S)-1-methoxyethyl)-5-(4-methylpiperazin-1-yl)pyridin-3-yl)-10,10-dimethyl-4-((7-methyl-[1,2,4]triazolo[4,3-a]pyridin-3-yl)amino)-6^1,6^2,6^3,6^4,6^5,6^6-hexahydro-1^1H-8-oxa-2(4,2)-thiazola-1(5,3)-indola-6(1,3)-pyridazinacycloundecaphane-5,7-dione]	–	–	–	–	4.55 nM	13.4 nM	4.06 nM	21.1 nM
CCn1c(-c2cc(OCCN3CCOC4(CC4)C3)cnc2[C@H](C)OC)c2c3cc(ccc31)-c1csc(n1)C[C@H](NC(=O)[C@@H]1[C@@H](C)[C@H]1c1ccncn1)C(=O)N1CCC[C@H](N1)C(=O)OCC(C)(C)C2 (atropisomer, axis not shown; (Ra)) [Compound Z661-2, (1R,2S,3R)—N-((6^3S,4S,Z)—(Ra)-1^2-(5-(2-(4-oxa-7-azaspiro[2,5]octan-7-yl)ethoxy)-2-((S)-1-methoxyethyl)pyridin-3-yl)-11-ethyl-10,10-dimethyl-5,7-dioxo-6^1,6^2,6^3,6^4,6^5,6^6-hexahydro-1^1H-8-oxa-2(4,2)-thiazola-1(5,3)-indola-6(1,3)-pyridazinacycloundecaphane-4-yl)-2-methyl-3-(pyrimidin-4-yl)cyclopropane-1-carboxamide]	–	–	–	–	1.58 nM	3.99 nM	0.83 nM	2.68 nM
